Data from ChEMBL document CHEMBL1921754, “Sodium dl-α-tocopheryl-6-O-phosphate inhibits PGE₂ production in keratinocytes induced by UVB, IL-1β and peroxidants” (Bioorg Med Chem, 2011).
Activity calls are given as the source filed them. No cut-off for these calls is given here.

Experiments:
[1] = Protection against UVB irradiation-induced cell damage in NHEK assessed as inhibition of PGE2 production at 2 uM pretreated for 24 hrs before UVB irradiation measured after 24 hrs by enzymatic immunoassay; assay type: functional; details: Homo sapiens, light or radiation study
Keratinocyte = experiment: Protection against UVB irradiation-induced SV40-transformed human keratinocytes damage assessed as inhibition of PGE2 production at 30 uM pretreated for 24 hrs before UVB irradiation measured after 24 hrs by ELISA; assay type: functional, cell-based
[2] = (§1) Protection against t-BHP-induced cell damage in NHEK assessed as inhibition of PGE2 production at 2 uM pretreated for 24 hrs before t-BHP challenge measured after 24 hrs by enzymatic immunoassay; assay type: functional; details: Homo sapiens
Zone of skin = experiment: Prodrug conversion in 3D restructured human skin model assessed as conversion of compound to dl-alpha-tocopherol at 2% after 4 hrs by HPLC analysis; assay type: ADME, tissue-based
[3] = Protection against IL1-beta-induced cell damage in NHEK assessed as inhibition of PGE2 production at 0.1 uM pretreated for 24 hrs before IL1-beta challenge measured after 24 hrs by enzymatic immunoassay; assay type: functional; details: Homo sapiens
[4] = Protection against IL1-beta-induced cell damage in NHEK assessed as inhibition of PGE2 production at 0.5 uM pretreated for 24 hrs before IL1-beta challenge measured after 24 hrs by enzymatic immunoassay; assay type: functional; details: Homo sapiens
[5] = Protection against H2O2-induced cell damage in NHEK assessed as inhibition of PGE2 production at 2 uM pretreated for 24 hrs before H2O2 challenge measured after 24 hrs by enzymatic immunoassay; assay type: functional; details: Homo sapiens
Homo sapiens [6] = species: Homo sapiens; experiment: Protection against H2O2-induced cell damage in NHEK assessed as inhibition of PGE2 production at 0.5 to 2 uM after 24 hrs by enzymatic immunoassay; assay type: functional
[7] = Protection against IL1-beta-induced cell damage in NHEK assessed as inhibition of PGE2 production at 2 uM pretreated for 24 hrs before IL1-beta challenge measured after 24 hrs by enzymatic immunoassay; assay type: functional; details: Homo sapiens
Homo sapiens [8] = species: Homo sapiens; experiment: as §1; assay type: functional
[9] = Protection against H2O2-induced cell damage in NHEK assessed as inhibition of PGE2 production at 0.5 to 2 uM pretreated for 24 hrs before H2O2 challenge measured after 24 hrs by enzymatic immunoassay; assay type: functional, Homo sapiens

| Compound | inhibition at 2 µM [1] [%] | inhibition at 0.5 µM [4] [%] | inhibition (Homo sapiens [6]) | inhibition at 2 µM [7] [%] | further results |
| --- | --- | --- | --- | --- | --- |
| Cc1ccc(S(=O)(=O)/C=C/C#N)cc1 | 9 |  |  |  |  |
| O=C1O[C@H]([C@@H](O)CO)C(O)=C1OP(=O)(O)O |  |  |  |  | inhibition (Keratinocyte): inactive |
| CC(=O)Oc1c(C)c(C)c2c(c1C)CC[C@@](C)(CCC[C@H](C)CCC[C@H](C)CCCC(C)C)O2 (racemic) |  | 40 | inactive | 67 | inhibition at 2 µM [2]: 77.4%; Drug metabolism (Zone of skin): Active; inhibition at 0.1 µM [3]: 38%; inhibition at 2 µM [5]: 25% |
| CC1(C)[C@@H](O[C@H]2O[C@H](C(=O)[O-])[C@@H](O)[C@H](O)[C@H]2O[C@@H]2O[C@H](C(=O)[O-])[C@@H](O)[C@H](O)[C@H]2O)CC[C@]2(C)[C@H]3C(=O)C=C4[C@@H]5C[C@@](C)(C(=O)O)CC[C@]5(C)CC[C@@]4(C)[C@]3(C)CC[C@@H]12.[K+].[K+] [GLYCYRRHIZINATE DIPOTASSIUM] |  | 14 | inactive | 24 | inhibition (Homo sapiens [8]): inactive; inhibition (INH) [9]: 40% |
| C[S+]([O-])c1ccc(-c2nc(-c3ccc(F)cc3)c(-c3ccncc3)[nH]2)cc1 (stereo unspecified) [SB-203580] | 73 |  |  |  |  |
| Oc1c2ccccc2c2c3c(cccc13)N=N2 [SP-600125] | 33 |  |  |  |  |
